From patent EP1074549B1, “Tetrahydro-benzo(d)azepines and their use as antagonists at metabotropic glutamate receptors” (F. HOFFMANN-LA ROCHE AG, priority 1999, dated 2001) come the findings set out here.

The target in test [1] is T1, rat mGluR1a receptor (Rattus norvegicus, UniProt P23385).
T1 construct: expressed in transfected cells; host or cells: HEK 293 cells (transient transfection), membrane preparation
Kind of test: binding assay for the characterization of mGluR 1 antagonistic properties (tritiated radioligand displacement). To be noted: membranes from HEK 293 cells transfected with rat mGluR1a; tritiated 1-ethyl-2-methyl-6-oxo-4-(1,1,2-tritritio-1,2,4,5-tetrahydro-benzo[d]azepin-3-yl)-1,6-dihydro-pyrimidine-5-carbonitrile at 3 nM; 1 hour at room temperature; read-out: B-IC 50. The protocol:
b) binding assay for the characterization of mGluR 1 antagonistic properties
Binding assay with tritiated 1-ethyl-2-methyl-6-oxo-4-(1,1,2-tritritio-1,2,4,5-tetrahydro-benzo[d]azepin-3-yl)-1,6-dihydro-pyrimidine-5-carbonitrile: HEK 293 cells were transiently transfected with the rat mGluR1a receptor. The cells were collected and washed 3 times with PBS. The cell pellets were frozen at -80 °C. Membranes were prepared from HEK 293 cells transfected with the rat mGluR1a receptor and used in the binding experiments at 10 µg proteins per assay after resuspension in a HEPES NaOH 20mM, pH=7.4 binding buffer. 1-Ethyl-2-methyl-6-oxo-4-(1,1,2-tritritio-1,2,4,5-tetrahydro-benzo[d]azepin-3-yl)-1,6-dihydro-pyrimidine-5-carbonitrile (S.A 33.4Ci/mmol) was used at 3 nM final concentration. The incubation with variable concentrations of potential inhibitors was performed for 1 hour at room temperature, the incubate was then filtered onto GF/B glass fiber filter preincubated 1 hour in PEI 0,1% and washed 3 times with 1ml of cold binding buffer. The radioactivity retained on the unifilter 96 was counted using a Topcount β counter. After correction for non specific binding the data were normalized and the IC50 value calculated using a 4 parameters logistic equation which was fitted to the inhibition curve.
(In a radioligand displacement assay an active substance lowers the binding of a labelled ligand.)

Test [2] deals with T1, rat mGluR1a receptor. Briefly: functional assay for the characterization of mGluR 1 antagonistic properties ([Ca2+]i measurement, FLIPR). Type of test: cell-based. Particulars: mGluR1a transfected HEK-EBNA cells; 10 µM glutamate as agonist; antagonists applied 5 minutes prior to agonist; read-out: F-IC 50. As to the method:
a) functional assay for the characterization of mGluR 1 antagonistic properties
cDNA encoding rat mGluR1a receptor obtained from Prof. S. Nakanishi (Kyoto, Japan) was transiently transfected into HEK-EBNA cells using a procedure described by Schlaeger et. al., New Dev. New Appl. Anim. Cell Techn., Proc. ESACT Meet., 15th ( 1998), 105-112 and 117-120. [Ca^2+]i measurements were performed on mGluR1a transfected HEK-EBNA cells after incubation of the cells with Fluo-3 AM (0.5 µM final concentration) for 1 hour at 37 °C followed by 4 washes with assay buffer (DMEM supplemented with Hank's salt and 20 mM HEPES. [Ca^2+]i measurements were done using a fluorometric imaging plate reader (FLIPR, Molecular Devices Corporation, La Jolla, CA, USA). 10 µM glutamate as agonist was used to evaluate the potency of the antagonists.
Increasing concentrations of antagonists were applied to the cells 5 minutes prior to the application of the agonist. The inhibition (antagonists) curves were fitted with a four parameter logistic equation giving IC50, and Hill coefficient using the iterative nonlinear curve fitting software Origin (Microcal Software Inc., Northampton, MA, USA).

T1 sequence (P23385 19-1199): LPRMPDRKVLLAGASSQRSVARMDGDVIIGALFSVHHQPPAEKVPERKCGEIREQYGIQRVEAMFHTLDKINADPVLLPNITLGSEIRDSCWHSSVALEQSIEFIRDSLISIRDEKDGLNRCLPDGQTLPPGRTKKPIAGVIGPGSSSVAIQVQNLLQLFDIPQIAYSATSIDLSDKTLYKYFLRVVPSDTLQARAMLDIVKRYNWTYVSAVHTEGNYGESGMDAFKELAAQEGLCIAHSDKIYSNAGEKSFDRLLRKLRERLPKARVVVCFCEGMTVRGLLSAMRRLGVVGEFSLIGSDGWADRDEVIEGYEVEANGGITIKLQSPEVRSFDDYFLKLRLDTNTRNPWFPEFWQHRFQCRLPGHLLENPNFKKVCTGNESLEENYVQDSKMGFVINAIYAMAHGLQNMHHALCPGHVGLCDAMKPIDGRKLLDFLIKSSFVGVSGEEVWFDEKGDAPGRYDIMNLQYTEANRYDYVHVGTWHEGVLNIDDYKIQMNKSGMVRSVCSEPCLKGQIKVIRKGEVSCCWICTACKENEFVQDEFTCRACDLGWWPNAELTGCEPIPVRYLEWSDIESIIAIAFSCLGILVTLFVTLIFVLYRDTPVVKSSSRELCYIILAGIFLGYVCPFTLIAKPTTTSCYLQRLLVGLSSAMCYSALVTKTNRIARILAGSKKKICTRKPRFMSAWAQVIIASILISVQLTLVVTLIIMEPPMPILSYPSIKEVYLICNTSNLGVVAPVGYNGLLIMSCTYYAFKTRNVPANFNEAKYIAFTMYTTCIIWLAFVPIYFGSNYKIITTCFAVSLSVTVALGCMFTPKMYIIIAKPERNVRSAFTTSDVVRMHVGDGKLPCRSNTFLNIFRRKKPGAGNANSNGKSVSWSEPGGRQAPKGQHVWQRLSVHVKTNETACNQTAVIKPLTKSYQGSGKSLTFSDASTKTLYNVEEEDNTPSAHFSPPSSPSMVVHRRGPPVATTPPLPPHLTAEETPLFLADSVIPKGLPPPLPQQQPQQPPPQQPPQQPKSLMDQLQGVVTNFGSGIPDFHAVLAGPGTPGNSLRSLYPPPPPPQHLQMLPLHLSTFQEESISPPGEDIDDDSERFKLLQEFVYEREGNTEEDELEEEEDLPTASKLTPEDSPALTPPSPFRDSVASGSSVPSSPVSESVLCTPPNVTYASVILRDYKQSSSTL

In the case of `CCn1c(NC=O)nc(N2CCc3ccccc3CC2)c(C#N)c1=O` [Example 154, N-[5-cyano-1-ethyl-6-oxo-4-(1,2,4,5-tetrahydro-benzo[d]azepin-3-yl)-1,6-dihydro-pyrimidin-2-yl]-formamide], the IC50 in test [1] was 10 nM; in test [2], 210 nM.
Turning to `CCNc1nc(N2CCc3ccccc3CC2)c(C#N)c(=O)[nH]1` [Example 25, 2-Ethylamino-6-oxo-4-(1,2,4,5-tetrahydro-benzo[d]azepin-3-yl)-1,6-dihydro-pyrimidine-5-carbonitrile], the values for the IC50 in test [1] and in test [2] were 15 nM and 5 nM, respectively.
In the case of `N#Cc1c(N2CCc3ccccc3CC2)nc2n(c1=O)CCC2` [Example 126, 4-Oxo-2-(1,2,4,5-tetrahydro-benzo[d]azepin-3-yl)-4,6,7,8-tetrahydro-pyrrolo[1,2-a]pyrimidine-3-carbonitrile], the values for the IC50 in test [1] and in test [2] were 720 nM and 100 nM, respectively.
For `CNn1c(C)nc(N2CCc3ccccc3CC2)c(C#N)c1=O` [Example 214, 2-Methyl-1-methylamino-6-oxo-4-(1,2,4,5-tetrahydro-benzo[d]azepin-3-yl)-1,6-dihydro-pyrimidine-5-carbonitrile], the IC50 in test [1] is 20 nM; in test [2], 120 nM.
With `Cc1nc(N2CCc3ccccc3CC2)c(C#N)c(=O)[nH]1` [Example 17, 2-Methyl-6-oxo-4-(1,2,4,5-tetrahydro-benzo[d]azepin-3-yl)-1,6-dihydro-pyrimidine-5-carbonitrile], the values for the IC50 in test [1] and in test [2] were 330 nM and 88 nM, respectively.
The corresponding values for `CCn1c(C)nc(N2CCc3ccc(F)cc3CC2)c([N+](=O)[O-])c1=O` [Example 132, 3-Ethyl-6-(7-fluoro-1,2,4,5-tetrahydro-benzo[d]azepin-3-yl)-2-methyl-5-nitro-3H-pyrimidin-4-one] are 80 nM and 14 nM.
The matching figures for `CSc1nc(N)nc(N2CCc3ccccc3CC2)c1C#N` [Example 249, 2-Amino-4-methylsulfanyl-6-(1,2,4,5-tetrahydro-benzo[d]azepin-3-yl)-pyrimidine-5-carbonitrile]: 11 nM and 23 nM.
The matching figures for `Cc1nc(N2CCc3ccccc3CC2)c(C#N)c(=O)n1OCC(F)(F)F` [Example 220, 2-Methyl-6-oxo-4-(1,2,4,5-tetrahydro-benzo[d]azepin-3-yl)-1-(2,2,2-trifluoro-ethoxy)-1,6-dihydro-pyrimidine-5-carbonitrile]: 2 nM and 38 nM.
As to `N#Cc1c(OCC(F)(F)F)nc(NCCCN2CCOCC2)nc1N1CCc2ccccc2CC1` [Example 174, 2-(3-Morpholin-4-yl-propylamino)-4-(1,2,4,5-tetrahydro-benzo[d]azepin-3-yl)-6-(2,2,2-trifluoro-ethoxy)-pyrimidine-5-carbonitrile], the IC50 in test [1] stood at 88 nM; in test [2] it was 970 nM.
Take `CCn1c(N)nc(N2CCc3ccccc3CC2)c(C#N)c1=O` [Example 30, 2-Amino-1-ethyl-6-oxo-4-(1,2,4,5-tetrahydro-benzo[d]azepin-3-yl)-1,6-dihydro-pyrimidine-5-carbonitrile]: the results for the IC50 in test [1] and in test [2] were 3 nM and 9 nM, respectively.
Take `Cc1nc(N2CCc3ccccc3CC2)c(C#N)c(=O)n1CC(F)(F)F` [Example 78, 2-Methyl-6-oxo-4-(1,2,4,5-tetrahydro-benzo[d]azepin-3-yl)-1-(2,2,2-trifluoro-ethyl)-1,6-dihydro-pyrimidine-5-carbonitrile]: the IC50 in test [1] amounted to 11 nM; in test [2], 26 nM.
The corresponding values for `Cc1nc(N2CCc3ccccc3CC2)c([N+](=O)[O-])c(=O)n1CC(F)(F)F` [Example 11, 2-Methyl-5-nitro-6-(1,2,4,5-tetrahydro-benzo[d]azepin-3-yl)-3-(2,2,2-trifluoro-ethyl)-3H-pyrimidin-4-one] are 18 nM and 8 nM.
The corresponding values for `N#Cc1c(OCC(F)(F)F)nc(NCCO)nc1N1CCc2ccccc2CC1` [Example 190, 2-(2-Hydroxy-ethylamino)-4-(1,2,4,5-tetrahydro-benzo[d]azepin-3-yl)-6-(2,2,2-trifluoro-ethoxy)-pyrimidine-5-carbonitrile] are 7 nM and 200 nM.
